In patent US20240336591A1, “ORGANIC PYRIDINE-PYRAZOLE COMPOUNDS AND THEIR USES” (priority 2021, published 2024):
Read-outs that look alike come from different tables or passages of the source.

Tests used:
Human PDE10A2 [1] = target: T1, Human PDE10A2 (Homo sapiens (Human), UniProt Q9Y233); test: Biochemical human PDE10A activity assay - PDE10A2 Phosphate Sensor Assay; conditions: cGMP 3 μM substrate, PDE10A2 0.25 nM
Description: Biochemical Human PDE10A Activity Assay—PDE10A2 Phosphate Sensor Assay
Semi Log compound dilutions starting at a final concentration of 50 μM were dispensed into a black 384 well plate alongside, DMSO and an Inhibited control using the Echo Acoustic dispenser. […] Data was analysed using a 4-parameter fit.

Human PDE10A2 [2] = target: T1, Human PDE10A2; test: Cell based human PDE10A activity assay - cAMP HTRF assay in HEK 293 rhPDE10A2 cell line
Description: Semi log compound dilutions starting at a final concentration of 10 μM were dispensed into a white 384 well plate, alongside DMSO and an Inhibited control using the Tecan D300e digital dispenser. HEK 293 cells overexpressing recombinant human PDE10A2 were seeded on top of the compounds at 2500 cells/well in a volume 5 μL/well. The plate was incubated at room temperature for 60 minutes. To induce endogenous cAMP, 5 μL/well of Forskolin at a final assay concentration of 10 μM was added to the plate. The plate was incubated at room temperature for a further 45 minutes. cAMP HTRF detection reagents were added, and the plate was incubated for 60 minutes at room temperature. […] Data was analysed using a 4-parameter fit.

[3] = Forskolin 10 μM, read-out: cAMP HTRF Assay in HEK 293 rhPDE10A2 cell line (pIC50) (converted)

T1 sequence (Q9Y233 267-1055): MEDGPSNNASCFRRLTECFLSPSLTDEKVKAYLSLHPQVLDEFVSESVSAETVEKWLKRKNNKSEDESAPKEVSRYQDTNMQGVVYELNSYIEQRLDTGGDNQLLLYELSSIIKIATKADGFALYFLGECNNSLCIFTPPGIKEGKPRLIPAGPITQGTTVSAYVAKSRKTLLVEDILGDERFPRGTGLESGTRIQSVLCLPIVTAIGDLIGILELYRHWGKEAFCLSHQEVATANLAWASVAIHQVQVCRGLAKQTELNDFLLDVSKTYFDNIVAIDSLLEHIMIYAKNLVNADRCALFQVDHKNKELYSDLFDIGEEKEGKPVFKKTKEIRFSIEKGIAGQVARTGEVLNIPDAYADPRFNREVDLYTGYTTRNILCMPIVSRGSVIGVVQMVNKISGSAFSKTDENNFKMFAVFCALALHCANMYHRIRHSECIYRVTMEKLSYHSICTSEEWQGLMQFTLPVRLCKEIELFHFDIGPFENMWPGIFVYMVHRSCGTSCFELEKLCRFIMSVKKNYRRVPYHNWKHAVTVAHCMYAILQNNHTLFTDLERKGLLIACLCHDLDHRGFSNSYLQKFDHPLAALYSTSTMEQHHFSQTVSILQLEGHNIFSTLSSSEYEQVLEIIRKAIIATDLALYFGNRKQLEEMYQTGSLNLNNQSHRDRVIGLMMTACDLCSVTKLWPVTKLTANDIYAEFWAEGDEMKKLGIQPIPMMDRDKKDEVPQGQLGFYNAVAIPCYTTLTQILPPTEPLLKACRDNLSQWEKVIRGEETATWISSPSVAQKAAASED

Row | SMILES | PDE10A2 Phosphate Sensor Enzyme Assay (pIC50) (Human PDE10A2 [1]) | IC50 (Human PDE10A2 [2]; [3]) | IC50 (Human PDE10A2 [2])
1 | CS(C)(=O)=NC(=O)c1cc(COc2ccc(-c3nn(CC(F)(F)F)cc3-c3ccncc3)cc2)nc2ccccc12 [Example 8, N-[Dimethyl(oxo)-λ6-sulfanylidene]-2-[[4-[4-(4-pyridyl)-1-(2,2,2-trifluoroethyl)pyrazol-3-yl]phenoxy]methyl]quinoline-4-carboxamide] | 10.2 | 0.38 nM | –
2 | O=C(O)c1cc(COc2ccc(-c3n[nH]cc3-c3ccncc3)cc2)nc2ccccc12 [Example 30, 2-[[4-[4-(4-Pyridyl)-1H-pyrazol-3-yl]phenoxy]methyl]quinoline-4-carboxylic acid] | 10.2 | 0.138 nM | –
3 | CS(=O)(=O)n1cc(-c2ccncc2)c(-c2ccc(OCc3ccc4ccccc4n3)cc2)n1 [Example 6, 2-[[4-[1-Methylsulfonyl-4-(4-pyridyl)pyrazol-3-yl]phenoxy]methyl]quinoline] | 8.36 | 64.6 nM | –
4 | Cn1cc(-c2ccncc2)c(-c2ccc(OCc3nc4ccccc4nc3N3CCNCC3)cc2)n1 [Example 42, 2-[[4-[1-Methyl-4-(4-pyridyl)pyrazol-3-yl]phenoxy]methyl]-3-piperazin-1-yl-quinoxaline] | 8.96 | – | 12.3 nM
5 | CS(C)(=O)=NC(=O)c1cc(COc2ccc(-c3nn(C4CC4)cc3-c3ccncc3)cc2)nc2ccccc12 [Example 28, 2-[[4-[1-Cyclopropyl-4-(4-pyridyl)pyrazol-3-yl]phenoxy]methyl]-N-[dimethyl(oxo)-λ6-sulfanylidene]quinoline-4-carboxamide] | 9.42 | 2.75 nM | –
6 | Cn1cc(-c2ccncc2)c(-c2ccc(OCc3cc(NC(=O)N=S(C)(C)=O)c4ccccc4n3)cc2)n1 [Example 36, 1-[Dimethyl(oxo)-λ6-sulfanylidene]-3-[2-[[4-[1-methyl-4-(4-pyridyl)pyrazol-3-yl]phenoxy]methyl]-4-quinolyl]urea] | 9.46 | 16.6 nM | –
7 | Cn1cc(-c2ccncc2)c(-c2ccc(OCc3nc4ccccc4nc3N3CC(N)C3)cc2)n1 [Example 41, 1-[3-[[4-[1-Methyl-4-(4-pyridyl)pyrazol-3-yl]phenoxy]methyl]quinoxalin-2-yl]azetidin-3-amine] | 9.45 | – | 7.59 nM
8 | Cn1cc(-c2ccncc2)c(-c2ccc(OCc3nc4ccc(F)cc4cc3C(=O)N=S(C)(C)=O)cc2)n1 [Example 22, N-[Dimethyl(oxo)-λ6-sulfanylidene]-6-fluoro-2-[[4-[1-methyl-4-(4-pyridyl)pyrazol-3-yl]phenoxy]methyl]quinoline-3-carboxamide] | 9.49 | 17.4 nM | –
9 | Cn1ncc(-c2ccncc2)c1-c1ccc(OCc2nc3ccccc3cc2C(=O)O)cc1 [Example 2, 2-[[4-[2-Methyl-4-(4-pyridyl)pyrazol-3-yl]phenoxy]methyl]quinoline-3-carboxylic acid] | 9.69 | 0.117 nM | –
10 | Cn1cc(-c2ccncc2)c(-c2ccc(OCc3nc4ccccc4cc3C(=O)N=S(C)(=O)C3CC3)cc2)n1 (centres unmarked) [Example 14, N-(Cyclopropyl-methyl-oxo-λ6-sulfanylidene)-2-[[4-[1-methyl-4-(4-pyridyl)pyrazol-3-yl]phenoxy]methyl]quinoline-3-carboxamide] | 10.0 | 0.676 nM | –
11 | CN(C(=O)c1cc(COc2ccc(-c3nn(C)cc3-c3ccncc3)cc2)nc2ccccc12)S(C)(=O)=O [Example 16, N-Methyl-2-[[4-[1-methyl-4-(4-pyridyl)pyrazol-3-yl]phenoxy]methyl]-N-methylsulfonyl-quinoline-4-carboxamide] | 9.87 | 0.603 nM | –
12 | CNC(=O)Nc1cc(COc2ccc(-c3nn(C)cc3-c3ccncc3)cc2)nc2ccccc12 [Example 35, 1-Methyl-3-[2-[[4-[1-methyl-4-(4-pyridyl)pyrazol-3-yl]phenoxy]methyl]-4-quinolyl]urea] | 9.67 | 3.47 nM | –
13 | Cn1cc(-c2ccncc2)c(-c2ccc(OCc3cc(NS(C)(=O)=O)c4ccccc4n3)cc2)n1 [Example 34, N-[2-[[4-[1-Methyl-4-(4-pyridyl)pyrazol-3-yl]phenoxy]methyl]-4-quinolyl]methanesulfonamide] | 9.54 | 1.2 nM | –
14 | CCn1cc(-c2ccncc2)c(-c2ccc(OCc3cc(C(=O)N=S(C)(C)=O)c4ccccc4n3)cc2)n1 [Example 27, N-[Dimethyl(oxo)-λ6-sulfanylidene]-2-[[4-[1-ethyl-4-(4-pyridyl)pyrazol-3-yl]phenoxy]methyl]quinoline-4-carboxamide] | 10.2 | 0.537 nM | –
15 | Cn1cc(-c2ccncc2)c(-c2ccc(OCc3nc4cccc(F)c4cc3C(=O)N=S(C)(C)=O)cc2)n1 [Example 23, N-[Dimethyl(oxo)-λ6-sulfanylidene]-5-fluoro-2-[[4-[1-methyl-4-(4-pyridyl)pyrazol-3-yl]phenoxy]methyl]quinoline-3-carboxamide] | 9.59 | 3.98 nM | –
16 | Cn1cc(-c2ccncc2)c(-c2ccc(OCc3nc(N4CC(N)C4)c4ccccc4n3)cc2)n1 [Example 39, 1-[2-[[4-[1-Methyl-4-(4-pyridyl)pyrazol-3-yl]phenoxy]methyl]quinazolin-4-yl]azetidin-3-amine] | 9.46 | 24.5 nM | –
17 | O=C(O)c1cc2ccccc2nc1COc1ccc(-c2n[nH]cc2-c2ccncc2)cc1 [Example 29, 2-[[4-[4-(4-Pyridyl)-1H-pyrazol-3-yl]phenoxy]methyl]quinoline-3-carboxylic acid] | 10 | 0.347 nM | –
18 | Cn1cc(-c2ccncc2)c(-c2ccc(OCc3cc(C(=O)N=S(C)(C)=O)c4c(Cl)cccc4n3)cc2)n1 [Example 26, 5-Chloro-N-[Dimethyl(oxo)-λ6-sulfanylidene]-2-[[4-[1-methyl-4-(4-pyridyl)pyrazol-3-yl]phenoxy]methyl]quinoline-4-carboxamide] | 9.13 | 42.7 nM | –
19 | Cn1cc(-c2ccncc2)c(-c2ccc(OCc3nc(N4CCNC(=O)C4)c4ccccc4n3)cc2)n1 [Example 38, 4-[2-[[4-[1-Methyl-4-(4-pyridyl)pyrazol-3-yl]phenoxy]methyl]quinazolin-4-yl]piperazin-2-one] | 10.1 | 0.269 nM | –
20 | Cn1cc(-c2ccncc2)c(-c2ccc(OCc3nc(N4CCS(=O)(=O)CC4)c4ccccc4n3)cc2)n1 [Example 37, 4-[2-[[4-[1-Methyl-4-(4-pyridyl)pyrazol-3-yl]phenoxy]methyl]quinazolin-4-yl]-1,4-thiazinane 1,1-dioxide] | 9.65 | 1.48 nM | –
21 | CS(C)(=O)=NC(=O)c1cc2ccccc2nc1COc1ccc(-c2n[nH]cc2-c2ccncc2)cc1 [Example 31, N-[Dimethyl(oxo)-λ6-sulfanylidene]-2-[[4-[4-(4-pyridyl)-1H-pyrazol-3-yl]phenoxy]methyl]quinoline-3-carboxamide] | 10 | – | 13.8 nM
22 | Cn1cc(-c2ccncc2)c(-c2ccc(OCc3nc4ccccc4cc3C(=O)N=S3(=O)CCCC3)cc2)n1 [Example 13, 2-[[4-[1-Methyl-4-(4-pyridyl)pyrazol-3-yl]phenoxy]methyl]-N-(1-oxothiolan-1-ylidene)quinoline-3-carboxamide] | 9.86 | 0.977 nM | –
23 | CS(C)(=O)=Nc1cc(COc2ccc(-c3n[nH]cc3-c3ccncc3)cc2)nc2ccccc12 [Example 32, Dimethyl-oxo-[[2-[[4-[4-(4-pyridyl)-1H-pyrazol-3-yl]phenoxy]methyl]-4-quinolyl]imino]-λ6-sulfane] | 10.3 | 46.8 nM | –
24 | Cc1cccc2nc(COc3ccc(-c4nn(C)cc4-c4ccncc4)cc3)c(C(=O)N=S(C)(C)=O)cc12 [Example 7, N-[Dimethyl(oxo)-λ6-sulfanylidene]-5-methyl-2-[[4-[1-methyl-4-(4-pyridyl)pyrazol-3-yl]phenoxy]methyl]quinoline-3-carboxamide] | 9.65 | 1.48 nM | –
25 | Cc1ccc2nc(COc3ccc(-c4nn(C)cc4-c4ccncc4)cc3)c(C(=O)N=S(C)(C)=O)cc2c1 [Example 24, N-[Dimethyl(oxo)-λ6-sulfanylidene]-6-methyl-2-[[4-[1-methyl-4-(4-pyridyl)pyrazol-3-yl]phenoxy]methyl]quinoline-3-carboxamide] | – | 331 nM | –
26 | CS(=N)(=O)c1cc(COc2ccc(-c3n[nH]cc3-c3ccncc3)cc2)nc2ccccc12 (centres unmarked) [Example 33, Imino-methyl-oxo-[2-[[4-[4-(4-pyridyl)-1H-pyrazol-3-yl]phenoxy]methyl]-4-quinolyl]-λ6-sulfane] | 9.32 | 8.91 nM | –
27 | Cn1cc(-c2ccncc2)c(-c2ccc(OCc3cc(C(=O)N=S(C)(C)=O)c4cc(F)ccc4n3)cc2)n1 [Example 25, N-[Dimethyl(oxo)-λ6-sulfanylidene]-6-fluoro-2-[[4-[1-methyl-4-(4-pyridyl)pyrazol-3-yl]phenoxy]methyl]quinoline-4-carboxamide] | 9.41 | 3.63 nM | –
